According to US6281194A, “Cycloalkyl inhibitors of protein farnesyltransferase” (Warner-Lambert Company, priority 1999, dated 2001):
Like-named read-outs stand apart in the source and are kept apart here.

Key:
H61 xenografts = assay: In vivo activity, H61 xenografts in NCR-NU mice
Protocol: Female NCR-NU mice were randomized and then inoculated with trocar fragments of H61 xenografts obtained from donor animals on Day 0 of the experiment. H61 cells are NIH3T3 cells that have been transfected and transformed with mutant human H-ras. The animals were then re-randomized to treatment groups. Tumor-bearing mice were then treated via subcutaneous (SC) or interperitoneal (IP) injections of Example 1 every 12 hours at various dose levels for 14 days beginning on Day 1. Tumors were measured with calipers in two orthogonal dimensions several times per week for the duration of the experiment. Tumor burdens in milligrams were estimated from the caliper measurements by standard methods (mg=axb^2 /2, where a and b are the measurements of the major and minor axes of the tumor, respectively.) Inhibition of tumor growth was assessed at the last day of treatment (14). […] In mice given Example 1 IP at either 37 or 23 mg/kg/injection, no tumors were evident at the sites of inoculation, indicating complete (100%) inhibition of tumor growth.

[1] = tested on: ras farnesylation in ras-transformed cells; assay: Gel shift assay; assay type: cell-based; details: 18-hour incubation
Protocol: Twenty-four hours after planting 2×10^6 ras-transformed cells per treatment condition, the farnesylation inhibitor is added at varying concentrations. Following an 18-hour incubation period, cells are lysed in phosphate-buffered saline containing 1% Triton X-100, 0.5% sodium deoxycholate, and 0.1% SDS (sodium dodecyl sulfate), pH 7.4 in the presence of several protease inhibitors (PMSF (phenylmethylsulfonylfluoride), antipain, leupeptin, pepstatin A, and aprotinin all at 1 μg/mL). Ras protein is immunoprecipitated from the supernatants by the addition of 3 μg v-H-ras Ab-2 (Y13-259 antibody from Oncogene Science). After overnight immunoprecipitation, 30 μL of a 50% protein G-Sepharose slurry (Pharmacia) is added followed by 45-minute incubation. Pellets are resuspended in 2× tris-glycine loading buffer (Novex) containing 5% β-mercaptoethanol and then denatured by 5 minutes boiling prior to electrophoresis on 14% Tris-glycine SDS gels. Using Western transfer techniques, proteins are transferred to nitrocellulose membranes followed by blocking in blocking buffer. Upon overnight incubation with primary antibody (pan-ras Ab-2 from Oncogene Science), an antimouse HRP (horse radish peroxidase) conjugate secondary antibody (Amersham) is employed for detection of the ras protein. Blots are developed using ECL(enhanced chemiluminescence) techniques (Amersham).

[2] = tested on: H61 cells: NIH transformed 3T3 H-ras cells; assay: Clonogenic assay (6 well plates); assay type: cell-based; details: H61 cells in soft agar, colonies counted after Day 13
Protocol: Clonogenic Assay (6 well plates)
Sometime previous to setting up an actual test:
1. Make up 1.5% Bacto Agar in Milli-Q water and autoclave.
2. Make up 500 mL 2× DMEM-HG without phenol red by combining the following:
1 bottle DMEM base powder (Sigma D-5030)
Adjust pH to 7.1 with HCl; filter sterilize.
1. Set up makeshift water bath (beaker of water with thermometer, on hot plate) in the hood. Keep water temperature between 37° C. to 43° C.
2. […] 1.5% Bacto Agar for approximately 2 minutes on high, or until completely melted. Then let it cool somewhat before using it. (You can keep it from resolidifying by setting the bottle on the hot plate.) […]
Bottom Layer (0.6% agar) Top Layer (0.3% agar)
20% calf serum 20% calf serum
40% Bacto Agar (1.5%) 20% Bacto Agar (1.5%)
(H61 cells: NIH transformed
Depending on the volume of each layer needed, use either 50 mL conical tubes or 200 mL turnip tubes which can be floated in the "water bath".
4. Add 1 mL of bottom layer agar/medium to each well: deliver 1 mL warm agar/medium to a well; then using the tip of the pipet, spread the agar/medium around to completely cover the bottom. Repeat with next well.
5. Allow the plates to set at room temperature for about 5 minutes until the bottom layer solidifies.
6. Label sterile Falcon 2054 (12×75 mm) tubes and add appropriate volume of drug solutions into them.
7. Aliquot 4 μL of DMSO or drug solution per 1 mL of agar/medium to appropriate tubes; then add the agar/medium/cells to each tube. Always add 1 mL more than will actually be needed. Mix up and down in the pipet (gently); then deliver 1 mL to the center of each well. The upper layer is less viscous, so it will generally spread out over the bottom layer unaided. If necessary, rotate the plane of the plate gently to spread the top layer evenly over the bottom layer.
8. Let plates set for 5 or 10 minutes at room temperature to solidify, then put into 5% CO2, 37° C. incubator.
9. On Day 13, add 0.5 mL of INT (tetrazolium 1 mg/mL in Milli-Q H2 O, filter sterilized) and return plates to incubator.

[3] = molecular target: T1, SF9 affinity purified rat farnesyl protein transferase (Rattus norvegicus, UniProt Q02293+Q04631); assay: PFT inhibitory activity; assay type: biochemical
T1 construct: made in house; host or cells: Sf9 insect cells (baculovirus system, inferred from b7)
Protocol: The protein:farnesyltransferase (PFT) or farnesyl protein transferase (FPT) inhibitory activity of compounds of the present invention were assayed in HEPES buffer (pH 7.4) containing 5 mM potassium phosphate and 20 μM ZnCl2. The solution also contained 5 mM DTT (dithiothreitol), 5 mM MgCl2 and 0.1% PEG 8000. Assays were performed in 96 well plates (Wallec) and employed solutions composed of varying concentrations of a compound of the present invention in 100% DMSO (dimethylsulfoxide). Upon addition of both substrates, radiolabeled farnesyl pyrophosphate ([1-^3 H], specific activity 15-30 Ci/mmol, final concentration 134 nM) and (biotinyl)-Ahe-Thr-Lys-Cys-Val-Ile-Met ([3aS[3a alpha, 4 beta, 6a alpha]-hexahydro-2-oxo-1H-thieno[3,4-d]imidazole-5-pentanoic acid]-[7-aminoheptanoic acid]-Thr-Lys-Cys-Val-Ile-Met) (Ahe is 7-aminoheptanoic acid, Thr is threonine, Lys is lysine, Cys is cysteine, Val is valine, Ile is isoleucine and Met is methionine) (final concentration 0.2 μM), the enzyme reaction was started by addition of SF9 affinity purified rat farnesyl protein transferase. After incubation at 30° C. for 30 minutes, the reaction was terminated by diluting the reaction 2.5-fold with a stop buffer containing 1.5 M magnesium acetate, 0.2 M H3 PO4, 0.5% BSA (bovine serum albumin), and strepavidin beads (Amersham) at a concentration of 1.3 mg/mL. After allowing the plate to settle for 30 minutes at room temperature, radioactivity was quantitated on a microBeta counter (Model 1450, Wallec). The assay was also carried out without 5 mM potassium phosphate.

[4] = tested on: EJ-1 human bladder carcinoma, HT1080 human fibrosarcoma and human colon carcinoma xenografts; details: 100 mg/kg, nude mice; cited from earlier work
[5] = tested on: human lung carcinoma with K-ras mutation and p53 deletion; details: nude mice; cited from earlier work
[6] = tested on: mammary and salivary carcinomas; details: daily administration; cited from earlier work
[7] = SC 96 mg/kg/injection every 12 hours for 14 days, last day of treatment (14)
[8] = HEPES buffer pH 7.4 with 5 mM potassium phosphate, read-out: PFT Inhibitory Activity IC50 (μM) HEPES and 5 mM K3 PO4
[9] = HEPES buffer pH 7.4 without 5 mM potassium phosphate, read-out: PFT Inhibitory Activity IC50 (μM) HEPES

| IC50 [3, 8] [µM] | IC50 [3, 9] [µM] | SMILES | Gel Shift (μM) M.E.D. (minimal effective dose to observe inhibition of ras farnesylation) [1] [µM] | IC50 [2] [µM] | also measured |
| --- | --- | --- | --- | --- | --- |
| 0.006 | 0.15 | O=C(CN(Cc1ccc(OCc2ccccc2)cc1)C(=O)[C@H](Cc1c[nH]cn1)NC(=O)OCc1ccccc1)NCC1(c2ccccc2)CC1 [Example 2] | 0.02 | 0.18 |  |
| 0.0017 | 0.14 | O=C(CN(Cc1ccc(OCc2ccccn2)cc1)C(=O)[C@H](Cc1c[nH]cn1)NC(=O)OCc1ccccc1)NCC1(c2ccccc2)CCC1 [Example 3] | 0.002 | 0.14 |  |
| 0.018 | 0.32 | O=C(CN(Cc1ccc(OCc2ccccc2)cc1)C(=O)[C@H](Cc1c[nH]cn1)NC(=O)OCc1ccccc1)NCC1(c2ccccc2)CCCC1 [Example 5, (S)-[1-((4-Benzyloxy-benzyl)-{[(1-phenyl-cyclopentylmethyl)-carbamoyl]-methyl}-carbamoyl)-2-(1H-imidazol-4-yl)-ethyl]-carbamic Acid benzyl Ester] | 0.2 |  | IC50 ([2]; 312 h): 0.32 µM |
| 0.0029 | 0.26 | COc1ccc(CN(CC(=O)NCC2(c3ccccc3)CCC2)C(=O)[C@H](Cc2c[nH]cn2)NC(=O)OCc2ccccc2)cc1 [Example 6, (S)-[1-((4-Methoxy-benzyl)-{[(1-phenyl-cyclobutyl-methyl)-carbamoyl]-methyl}-carbamoyl)-2-(1H-imidazol-4-yl)-ethyl]-carbamic Acid benzyl Ester] | 0.002 |  | IC50 ([2]; 312 h): 0.21 µM |
|  |  | COC(=O)[C@H](CCSC)NC(=O)[C@H](/C=C\[C@@H](/C=C/[C@@H](N)CS)C(C)C)Cc1ccccc1 [Example B1086] |  |  | tumor growth (in words) [4]: inhibit tumor growth |
|  |  | CSCC[C@H](NC(=O)c1ccc(NC[C@@H](N)CS)cc1-c1ccccc1)C(=O)O [FTI276] |  |  | tumor growth (in words) [5]: selectively block tumor growth |
|  |  | CC[C@H](C)[C@@H](CO[C@@H](Cc1ccccc1)C(=O)N[C@@H](CCS(C)(=O)=O)C(=O)OC(C)C)NC[C@@H](N)CS [L-744,832] |  |  | tumor regression (in words) [6]: caused tumor regression |

| SMILES | IC50 [3, 8] [µM] | IC50 [3, 9] [µM] | Gel Shift (μM) M.E.D. (minimal effective dose to observe inhibition of ras farnesylation) [1] [µM] | IC50 [2] [µM] | also measured |
| --- | --- | --- | --- | --- | --- |
| O=C(CN(Cc1ccc(OCc2ccccc2)cc1)C(=O)[C@H](Cc1c[nH]cn1)NC(=O)OCc1ccccc1)NCC1(c2ccccc2)CCC1 [Example 1, (S)-[1-((4-Benzyloxy-benzyl)-{[1-(phenyl-cyclobutylmethyl)-carbamoyl]-methyl}-carbamoyl)-2-(1H-imidazol-4-yl)-ethyl]-carbamic Acid benzyl ester] | 0.006 | 0.075 | 0.02 | 0.047 | inhibition of tumor growth (H61 xenografts; IP 23 mg/kg/injection every 12 hours for 14 days, no tumors evident at sites of inoculation): 100%; inhibition of tumor growth (H61 xenografts; IP 37 mg/kg/injection every 12 hours for 14 days, no tumors evident at sites of inoculation): 100%; inhibition of tumor growth (H61 xenografts; [7]): 73%; median tumor burden of the treated group (H61 xenografts; [7]): 672 mg; inhibition of tumor growth (in words) (H61 xenografts; SC or IP every 12 hours for 14 days): significantly inhibited tumor growth |
